In patent US20190060249A1 (priority 2017, published 2019):

Legend:
[1] = tested on: E13.5 embryonic SMG epithelia; assay: Embryonic epithelial rudiment cultures; type: cell-based, mouse
Text: Embryonic epithelial rudiment cultures: Epithelia and mesenchyme were separated using dispase treatment and mechanical dissection and cultured in a drop of laminin on a nucleopore filter over serum-free DMEM/F12 containing holotransferrin and ascorbic acid (complete media) as described for the E13 submandibular gland (Steinberg, Z., Myers, C., Heim, V. M., Lathrop, C. A., Rebustini, I. T., Stewart, J. S., Larsen, M., and Hoffman, M. P. (2005) FGFR2b signaling regulates ex vivo submandibular gland epithelial cell proliferation and branching morphogenesis. Development (Cambridge, England) 132, 1223-1234). Epithelia were cultured with 400 ng/ml FGF10 (R&D Systems) and 0.5 μl/ml heparin sulfate (Sigma Aldrich) in the presence or absence of 25-200 μM ALDH341 or vehicle (PEG) and were subjected to RNA isolation or fixed for immunostaining after 24-48 h.
N=6-7 epithelia per group.
[…] confocal section of all three markers (top) and averaged confocal sections of c-KIT only (bottom).
Samples were tested in triplicate.
Immunohistochemistry: Embryonic rudiment immunofluorescence analysis has been previously described in, Knox, S. M., Lombaert, I. M., Reed, X., Vitale-Cross, L., Gutkind, J. S., and Hoffman, M. P. (2010) Parasympathetic innervation maintains epithelial progenitor cells during salivary organogenesis. Science (New York, N.Y.) 329, 1645-1647. In brief, tissue was fixed with 4% PFA for 20-30 min followed by permeabilizing with 0.1-0.3% Triton-X. Tissue was blocked overnight at 4° C. with 10% Donkey Serum (Jackson Laboratories), 1% BSA (Sigma Aldrich), and MOM IgG-blocking reagent (Vector Laboratories) in 0.01% PBS-Tween-20. SGs were incubated with primary antibodies overnight at 4° C.: rabbit anti-cKIT (1:200, Santa Cruz Biotech, M14), and rat anti-E-cadherin (1:300, Life Technologies, 13-1900). Antibodies were detected using Cy2-, Cy3- or Cy5-conjugated secondary Fab fragment antibodies (Jackson Laboratories) and nuclei stained using Hoescht 33342 (1:1000, Sigma Aldrich). Fluorescence was analyzed using a Leica Sp5 confocal microscope and NIH ImageJ software.
qPCR: RNA was isolated from whole tissue using RNAqueous Micro Kit (Ambion). Total RNA samples were DNase-treated (Ambion), prior to cDNA synthesis using SuperScript reagents (Invitrogen). SYBRgreen qPCR was performed using 1 ng of cDNA and primers designed using Primer3 and Beacon Designer software or found using PrimerBank (http://pga.mgh.harvard.edu/primerbank/). Melt-curves and primer efficiency were determined as previously described (Hoffman, M. P., Kidder, B. L., Steinberg, Z. L., Lakhani, S., Ho, S., Kleinman, H K., and Larsen, M. (2002) Gene expression profiles of mouse submandibular gland development: FGFR1 regulates branching morphogenesis in vitro through BMP- and FGF-dependent mechanisms. Development (Cambridge, England) 129, 5767-5778). Gene expression was normalized to the housekeeping gene S29 (Rps29).

[2] = human, 2 g/d oral Alda-341 for 2 weeks
Text: Saliva and plasma samples were collected at baseline, and at the time of surgery, and normal salivary gland tissue was collected at the time of surgery.
Patients were required to be between 18 to 85 years of age, have elected to undergo surgery for recent diagnosis of parotid or submandibular gland tumor, and qualified for anesthesia. […] Patients were excluded from study participation if nursing or pregnant or diagnosed with kidney disease, end stage liver disease, metastatic cancer, or any unstable medical condition. […] Blood and saliva samples were collected at baseline and on the day of surgery. Normal and tumor salivary gland tissue were collected during surgery. Drug levels in tissue, plasma, and saliva were measured by the GCMS method described herein.
An aliquot of the heptane layer was used for analysis. […] Samples volumes of 1 μL splitless were injected with an inlet temperature of 220° C. The flow rate was constant at 1 mL/min. An Agilent DB-5MS UI column was used (30 m length, 0.250 mm inner diameter, 0.25 micron film). […] Calibration curves were linear from 4 to 8000 ng/mL.

[3] = 200 μM Alda-341, RT-qPCR vs vehicle control

## C=C(C)[C@H]1CC=C(C)CC1 [Alda-341, D-limonene]
[1]; 200 μM Alda-341, 24 h
  localisation of c-Kit+ cells (immunofluorescence): limited to the end buds only
[1]; [3]
  expression of acinar progenitor marker Sox10: Increased expression
  transcript level of acinar maturation marker Aqp5: increased transcript levels
  transcript level of acinar maturation marker Mist1: increased transcript levels
[1]; cultured 24 h, 100 μM and 200 μM Alda-341
  number of end buds: dose-dependent increase
[1]; cultured 24 h, 100 μM and 200 μM Alda-341, normalized to vehicle control
  epithelial area: dose-dependent increase
[2]
  average plasma drug levels after treatment: 144.3 ng/mL
